From ChEMBL document CHEMBL1201862, “PubChem BioAssay data set” (2004)
The source made the active and inactive calls.

Legend:
[1] = target: T1, Type-1 angiotensin II receptor (Homo sapiens, UniProt P30556); assay: antagonism of angiotensin II type 1 receptor – cell-based, uHTS hits, selectivity assay for APJ receptor antagonist project, dose response (AID 463214); assay type: functional;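 also: antagonist potency against angiotensin II stimulated AT1 response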
T1 sequence (P30556 whole entry): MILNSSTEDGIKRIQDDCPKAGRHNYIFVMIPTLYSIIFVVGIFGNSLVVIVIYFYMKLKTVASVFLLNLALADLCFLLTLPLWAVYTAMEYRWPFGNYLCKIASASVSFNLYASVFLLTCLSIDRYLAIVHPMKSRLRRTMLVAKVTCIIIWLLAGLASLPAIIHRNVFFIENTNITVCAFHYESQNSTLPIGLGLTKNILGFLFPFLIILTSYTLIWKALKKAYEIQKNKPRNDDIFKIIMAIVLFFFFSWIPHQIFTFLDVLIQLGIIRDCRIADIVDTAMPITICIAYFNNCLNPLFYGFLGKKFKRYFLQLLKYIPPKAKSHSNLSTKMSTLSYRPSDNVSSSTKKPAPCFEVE

Beta-galactosidase = Beta-galactosidase (Escherichia coli, UniProt Q8VNN2); assay: PubChem AID 485352; assay type: functional
[2] = off-target signal loss in HeLa-CEM21 co-culture – HeLa F-luc CTL cells, cherry-picked, counter-screen for HIV-1 Env fusion inhibitor project, dose response (AID 652040); assay type: functional, cell-based;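 also: potency for signal decrease marking cytotoxic or nonspecific inhibition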
[3] = HIV-1 AD8 envelope cell-cell fusion blockers – cherry-pick, dose response (AID 652062); assay type: functional, cell-based;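 also: luciferase signal from cell-cell fusion driven by HIV-1 clade B AD8 Env; potency is for inhibitors of fusion seen as a drop in luminescence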
[4] = blockers of HIV-1 envelope-mediated cell-cell fusion – cherry-pick, dose response (AID 652057); assay type: functional, cell-based
[5] = viability loss in CEM21 cells – cell-based, CellTiter-Glo luminescence, cherry-picked, cytotoxicity control for viral fusion inhibitor project, dose response (AID 652042); assay type: functional;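 also: potency for signal decrease meaning cytotoxicity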
[6] = blockers of HIV-1 ZM109 envelope-driven cell-cell fusion – HeLa effector, CEM target cells, luciferase, cherry-pick, dose response (AID 652058); assay type: functional, cell-based;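 also: luciferase signal from HIV-1 Env mediated cell-cell fusion of effector and target cells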
[7] = target: T2, Short transient receptor potential channel 4 (Mus musculus, UniProt Q9QUQ5); assay: calcium entry via TRPC4 opening agents – cell-based, HEK293 TRPC4/mu-opioid, Fluo-4 calcium, dose response (AID 434937); assay type: functional
T2 sequence (Q9QUQ5 whole entry): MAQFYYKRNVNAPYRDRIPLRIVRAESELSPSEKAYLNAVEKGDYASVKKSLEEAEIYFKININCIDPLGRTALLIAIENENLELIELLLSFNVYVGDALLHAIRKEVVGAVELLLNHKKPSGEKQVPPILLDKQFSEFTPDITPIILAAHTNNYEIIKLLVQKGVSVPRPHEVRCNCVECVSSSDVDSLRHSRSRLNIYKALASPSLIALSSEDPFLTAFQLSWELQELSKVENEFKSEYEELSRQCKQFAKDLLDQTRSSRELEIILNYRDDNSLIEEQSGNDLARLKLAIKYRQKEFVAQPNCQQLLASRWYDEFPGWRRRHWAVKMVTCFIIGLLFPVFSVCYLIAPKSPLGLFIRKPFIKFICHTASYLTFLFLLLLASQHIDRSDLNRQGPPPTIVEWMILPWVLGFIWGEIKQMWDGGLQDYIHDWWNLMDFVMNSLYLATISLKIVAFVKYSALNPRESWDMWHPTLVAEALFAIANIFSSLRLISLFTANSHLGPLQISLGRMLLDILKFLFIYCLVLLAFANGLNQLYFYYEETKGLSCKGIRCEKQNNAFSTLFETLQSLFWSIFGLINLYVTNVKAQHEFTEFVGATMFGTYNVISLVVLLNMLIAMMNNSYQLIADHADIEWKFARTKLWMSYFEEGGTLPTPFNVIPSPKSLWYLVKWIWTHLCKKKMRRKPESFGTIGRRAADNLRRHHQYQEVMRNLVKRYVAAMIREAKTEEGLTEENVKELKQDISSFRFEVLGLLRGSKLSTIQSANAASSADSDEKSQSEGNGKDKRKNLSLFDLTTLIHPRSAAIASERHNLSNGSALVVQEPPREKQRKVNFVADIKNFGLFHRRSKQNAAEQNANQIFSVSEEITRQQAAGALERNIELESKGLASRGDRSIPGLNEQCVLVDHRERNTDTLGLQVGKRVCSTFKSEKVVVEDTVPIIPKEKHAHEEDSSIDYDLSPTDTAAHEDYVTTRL

[8] = target: T3, Latent membrane protein 1 (Human herpesvirus 4 (strain B95-8), UniProt P03230); assay: LMP1 TES1 pathway selectivity over dsRED control – imaging, HEK293T, dual-color eGFP/dsRED, cherry-picks, selectivity assay for LMP1 NF-kB inhibitor project, dose response (AID 588398); assay type: functional, cell-based
T3 sequence (P03230 whole entry): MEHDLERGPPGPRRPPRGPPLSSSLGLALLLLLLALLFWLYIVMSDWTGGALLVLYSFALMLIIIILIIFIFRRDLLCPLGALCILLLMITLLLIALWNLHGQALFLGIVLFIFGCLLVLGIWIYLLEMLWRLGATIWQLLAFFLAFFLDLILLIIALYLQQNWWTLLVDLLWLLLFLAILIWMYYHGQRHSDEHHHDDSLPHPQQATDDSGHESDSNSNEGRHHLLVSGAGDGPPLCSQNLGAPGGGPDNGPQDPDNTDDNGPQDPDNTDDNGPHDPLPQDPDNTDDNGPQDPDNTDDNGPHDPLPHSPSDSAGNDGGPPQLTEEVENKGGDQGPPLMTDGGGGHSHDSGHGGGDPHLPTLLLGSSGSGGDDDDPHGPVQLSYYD

HEK293 = assay: EBV LMP1 TES2 canonical NF-kB signalling blockers – cell-based, HEK293, luciferase, cherry-pick, dose response (AID 588343); assay type: functional; details: Homo sapiens
[9] = Luminescence Cell-Based Dose Retest to Confirm Inhibitors of Cancer Stem Cells. [Related pubchem assays (depositor defined):AID2717, AID2721]; assay type: functional; details: Homo sapiens
Cytochrome P450 2C9 [10] = target: T4, Cytochrome P450 2C9 (Homo sapiens, UniProt P11712)
[11] = target: T2, Short transient receptor potential channel 4; assay: block of DAMGO-driven TRPC4 calcium entry – cell-based, HEK293 TRPC4/mu-opioid, Fluo-4 calcium, dose response (AID 434942); assay type: functional;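 also: potency of inhibitors blocking the TRPC4 calcium response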
Vero = assay: cells; assay type: functional, cell-based; details: Chlorocebus sabaeus
Cytochrome P450 2C9 [12] = target: T4, Cytochrome P450 2C9; remark: listed apart in the source

T4 sequence (P11712 whole entry): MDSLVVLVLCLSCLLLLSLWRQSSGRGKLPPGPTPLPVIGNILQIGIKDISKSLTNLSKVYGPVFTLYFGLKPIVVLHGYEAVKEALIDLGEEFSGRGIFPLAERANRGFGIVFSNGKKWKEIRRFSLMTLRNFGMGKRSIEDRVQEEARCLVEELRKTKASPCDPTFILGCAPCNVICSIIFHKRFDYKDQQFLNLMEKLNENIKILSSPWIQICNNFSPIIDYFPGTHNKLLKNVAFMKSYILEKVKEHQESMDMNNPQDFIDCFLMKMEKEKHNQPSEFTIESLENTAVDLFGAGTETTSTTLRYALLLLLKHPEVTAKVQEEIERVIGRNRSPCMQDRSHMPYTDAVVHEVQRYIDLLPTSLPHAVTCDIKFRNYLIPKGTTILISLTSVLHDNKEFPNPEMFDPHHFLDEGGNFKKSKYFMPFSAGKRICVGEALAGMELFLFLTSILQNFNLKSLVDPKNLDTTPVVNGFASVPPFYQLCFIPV
Beta-galactosidase, sequence (Q8VNN2 whole entry, the tested form may be a part): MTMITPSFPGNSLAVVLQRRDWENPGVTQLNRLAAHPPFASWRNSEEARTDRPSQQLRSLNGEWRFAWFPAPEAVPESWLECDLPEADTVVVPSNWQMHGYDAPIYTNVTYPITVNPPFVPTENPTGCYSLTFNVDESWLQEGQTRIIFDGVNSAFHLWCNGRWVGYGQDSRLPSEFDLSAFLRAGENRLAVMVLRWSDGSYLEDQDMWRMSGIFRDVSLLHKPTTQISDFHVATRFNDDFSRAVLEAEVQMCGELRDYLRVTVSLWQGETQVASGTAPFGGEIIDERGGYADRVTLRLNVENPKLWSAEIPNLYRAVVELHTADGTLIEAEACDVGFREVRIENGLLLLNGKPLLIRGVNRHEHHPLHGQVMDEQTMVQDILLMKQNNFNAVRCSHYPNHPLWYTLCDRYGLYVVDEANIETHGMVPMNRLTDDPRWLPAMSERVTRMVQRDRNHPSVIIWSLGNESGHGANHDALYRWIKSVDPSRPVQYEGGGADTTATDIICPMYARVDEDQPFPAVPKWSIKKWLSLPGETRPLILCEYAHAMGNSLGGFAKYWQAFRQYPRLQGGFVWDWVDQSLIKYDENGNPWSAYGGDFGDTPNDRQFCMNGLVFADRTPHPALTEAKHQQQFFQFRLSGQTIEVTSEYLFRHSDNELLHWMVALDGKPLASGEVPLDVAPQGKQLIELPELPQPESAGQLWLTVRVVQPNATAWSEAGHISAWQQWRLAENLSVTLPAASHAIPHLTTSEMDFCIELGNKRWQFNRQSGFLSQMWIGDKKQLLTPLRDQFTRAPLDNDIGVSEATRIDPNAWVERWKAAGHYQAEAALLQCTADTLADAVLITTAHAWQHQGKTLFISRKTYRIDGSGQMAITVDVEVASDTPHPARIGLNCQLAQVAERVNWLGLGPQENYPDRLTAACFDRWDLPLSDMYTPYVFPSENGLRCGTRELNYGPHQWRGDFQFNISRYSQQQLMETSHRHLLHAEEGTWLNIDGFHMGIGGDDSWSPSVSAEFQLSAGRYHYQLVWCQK

Structure (SMILES): O=C(CN1C(=O)C2C3CC(C(Br)C3Br)C2C1=O)OCC(=O)c1cccc([N+](=O)[O-])c1 (centres undefined)
- IC50 [1]: 20.4 µM (not active)
- EC50 (Beta-galactosidase): > 40 µM (inactive)

Structure (SMILES): CCCCN1C(=O)C(O)(c2ccccc2)c2cc(Br)ccc21 (centres undefined)
- AC50 [2]: 6.01 µM (active)
- AC50 [3]: 7.82 µM (active)
- AC50 [4]: 4.89 µM (active)
- AC50 [5]: 48.2 µM (active)
- AC50 [6]: 4.73 µM (active)

Structure (SMILES): COC(=O)[C@]12C[C@H](CC(=O)NCc3cccs3)C(=O)N(CCC3=CCCCC3)C1=C[C@H](C(C)(C)C)O[C@@H]2C
- AC50 [2]: 1.72 µM (active)
- AC50 [3]: 5.01 µM (active)
- AC50 [4]: 1.18 µM (active)
- AC50 [5]: 51.6 µM (active)
- AC50 [6]: 1.91 µM (active)

Structure (SMILES): O=C(c1ccco1)C(O)c1ccco1 (centres undefined)
- IC50 [1]: 35.2 µM (not active)
- EC50 (Beta-galactosidase): > 40 µM (inactive)

Structure (SMILES): CCC(=O)NC(C)C(c1cccs1)N1CCN(c2ccccc2)CC1 (centres undefined)
- EC50 [7]: 0.421 µM (active)

Structure (SMILES): CN1CCN(/N=C/c2ccc(N(c3ccccc3)c3ccccc3)cc2)CC1
- AC50 [8]: 0.147 µM (active)
- AC50 (HEK293): 0.907 µM (active)
- AC50 [9]: 5.11 µM (active)

Structure (SMILES): O=C(NC1CCCc2ccccc21)c1ccc(O)nc1 (centres undefined)
- AC50 (Cytochrome P450 2C9 [10]): inconclusive

Structure (SMILES): COc1cc(OC)cc(C(=O)N[C@H](C(=O)OCC(=O)c2ccc(C)c([N+](=O)[O-])c2)C(C)C)c1
- IC50 [1]: > 40 µM (not active)
- EC50 (Beta-galactosidase): > 40 µM (inactive)
- AC50 [8]: 42.8 µM (active)

Structure (SMILES): COc1ccc(C)c(NC(=O)NCCc2c[nH]cn2)c1
- EC50 [7]: 1.88 µM (active)

Structure (SMILES): OC1(c2cccs2)C[N+](c2ccc(Cl)cc2)=C2CCCCN21 (centres undefined)
- EC50 [11]: 2.66 µM (active)
- IC50 (Vero): 8.4 µM (active)

Structure (SMILES): O=C1/C(=C/c2cccnc2)SC(=S)N1Cc1ccco1
- AC50 [8]: 39.5 µM (active)
- AC50 (HEK293): 0.758 µM (active)
- AC50 (Cytochrome P450 2C9 [12]): 6.31 µM (inconclusive)

Structure (SMILES): NC(=O)c1nn(-c2ccccc2)c(=O)cc1O
- AC50 (Cytochrome P450 2C9 [10]): inconclusive
